Measured values reported in US9908890B2, “Selective inhibitors of constitutive androstane receptor” (ST. JUDE CHILDREN'S RESEARCH HOSPITAL, priority 2014, dated 2018).

Columns and labels:
[1] = target: T1, hCAR1 (Homo sapiens, UniProt Q14994); experiment: Cell-based inverse agonist assay (CYP2B6-luciferase reporter in HepG2 cells transfected with hCAR1); details: 24 h treatment; read-out: IC50, inhibition of CAR-mediated CYP2B6-luciferase activity
T1 construct: expressed in transfected cells; host or cells: HepG2 (transient transfection)
T1 sequence (Q14994 1-348 isoform Q14994-2): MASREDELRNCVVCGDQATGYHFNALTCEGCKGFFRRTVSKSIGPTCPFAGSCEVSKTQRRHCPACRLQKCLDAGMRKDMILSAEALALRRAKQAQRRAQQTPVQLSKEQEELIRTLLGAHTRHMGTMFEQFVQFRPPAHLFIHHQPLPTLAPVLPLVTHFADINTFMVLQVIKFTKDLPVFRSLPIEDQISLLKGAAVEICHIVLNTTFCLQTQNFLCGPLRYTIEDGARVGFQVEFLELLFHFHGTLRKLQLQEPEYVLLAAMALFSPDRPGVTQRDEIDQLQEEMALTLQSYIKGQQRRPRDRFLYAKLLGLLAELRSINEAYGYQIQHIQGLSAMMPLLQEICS
Method: HepG2 cells grown in flasks were transfected with Flag-hCAR1 and CYP2B6-luciferase reporter at a 1:3 ratio with Fugene HD (Promega) and incubated for 24 h. Cells were trypsinized and plated in 384-well plates (CulturPlate-384, PerkinElmer) at 5000 cells/well for the primary or secondary screening assays. Cells were treated with chemicals transferred by using a pintool 24 h prior to measuring reporter luciferase activity with SteadyLite firefly luciferase reagent and an EnVision plate reader (PerkinElmer). […] PXR activity was measured in HepG2 cells stably transfected with hPXR and CYP3A4-luciferase reporter (previously described as PXR Clonel cells, see Li, G., et al. (2012) Tox. Appl. Pharm. 258, 268-274; and Lin, W., et al. (2008) J. Biol. Chem. 283, 30650-30657). […] The luminescence signal was detected by using an Envision plate reader (PerkinElmer) and used to calculate the percentage of PXR activation. […] A flowchart of our screening strategy is illustrated in FIG. 1A. HepG2 cells were transiently transfected with pcDNA-hCAR1 and CYP2B6-luciferase plasmids and treated with varying concentrations of the test compounds in 384-well plates for 24 h, and CAR-mediated luciferase activity was measured. Twenty-five hits, defined as those displaying dose-responsive inhibitory effect on the constitutively active hCAR1, were selected and tested in various secondary screening assays. CINPA1 (FIG. 1B) was selected based on its potent inhibitory effect on hCAR1 and lack of detectable agonistic activity against PXR.

[2] = test system: CAR-regulated genes in HepG2-hCAR1 cells; experiment: Quantitative real-time PCR in HepG2-hCAR1 cells; assay type: cell-based, human
Source text: (§1) RNA was extracted, cDNA synthesized, and gene expression analyzed by performing real-time PCR using Taqman probes for each gene. […] LS174T cells were maintained in 10% charcoal-dextran-treated, FBS media for 4 days before the experiment. […] Briefly, human primary hepatocytes (HPH) were maintained in William's E media with supplements for 4 days before treatment. […] RNA extracted was used for cDNA synthesis and measured by performing quantitative real-time PCR assays with Taqman probes.
Briefly, LS174T were maintained in 10% charcoal-dextran treated-FBS media for 4 days prior to the experiment. […] For the data shown in both FIG. 12A and FIG. 12B, RNA extracted was used for cDNA synthesis and measured by quantitative real-time PCR with Taqman probes. MDR1 mRNA was normalized to the internal control 18S and DMSO treated samples were set to 1. *, p<0.05 when compared to DMSO samples.
(§2) Cell lines or human hepatocytes were treated with chemicals for 24-48 hours before RNA was extracted and purified by using the Maxwell 16LEV simplyRNA tissue kit (Promega). Then, cDNA was prepared from 2 μg of RNA, and diluted cDNA was used to perform quantitative RT-PCR assays by using TaqMan probes (ABI; 7500 Thermocycler) with 18S as the internal standard.

[3] = test system: CAR- and PXR-regulated genes in human primary hepatocytes; experiment: Quantitative real-time PCR in human primary hepatocytes; assay type: cell-based; details: 48 h
Source text: as §1
Briefly, human primary hepatocytes (donor 5) were maintained in William's E Media with supplements for 4 days prior to treatment. […] RNA extracted was used for cDNA synthesis and measured by quantitative real-time PCR with Taqman probes. CYP2B6 and CYP3A4 mRNA were normalized to the internal control 18S and DMSO-treated samples were set to 1.
as §2

[4] = target: T1, hCAR1; experiment: CAR-mediated CYP3A4-luciferase assay (HepG2 cells transfected with hCAR1); assay type: cell-based; details: 1 μM or 5 μM CINPA1, 24 h
Method: Briefly, HepG2 cells were transiently transfected with plasmids expressing hCAR1, CYP3A4-luc reporter and control plasmid pTK-RL. […] Dual luciferase activity was measured 24 h after treatment using Dual-Glo® luciferase reagent. Renilla luciferase was used to normalize firefly luciferase values and % Luciferase activity was calculated by setting DMSO to 100%. p<0.001, when comparing DMSO to all treatments except 5 μM rifampicin. […] Briefly, HepG2-PXR Clone 1 cells were treated with CINPA1 in a dose-responsive format (40 μM to 2 nM, 1-to-2 dilutions for 10 concentrations) in the presence or absence of 5 μM rifampicin (Rif) for 24 h before luciferase assay using SteadyLite™. % PXR activity was calculated by setting DMSO (negative. control) treated cells to 0% and 5 μM rifampicin (positive. control) treated cells to 100%. GraphPad Prism was used to fit the data into a dose-response stimulation equation to derive IC50 values. […] Briefly, U2OS cells were transiently transfected with plasmids expressing hCAR1, CYP2B6-luc reporter and control plasmid pTK-RL. […] Dual luciferase activity was measured 24 h after treatment. Renilla luciferase was used to normalize firefly luciferase values and % Luciferase activity was calculated by setting DMSO to 100%. *, p<0.0001 comparing CITCO+CINPA1 to CITCO treated cells.

CCOC(=O)Nc1ccc2c(c1)N(C(=O)CN(CC)CC)c1ccccc1CC2 [CINPA1]
IC50 [1]: 72 nM | MDR1 mRNA level ([2]; HepG2-hCAR1, 0.1 μM CINPA1 or 1 μM PK11195, 24 h): reduced MDR1 levels | CYP2B6 mRNA level ([2]; HepG2-hCAR1, 1 μM, 24 h): substantially and significantly attenuated | CYP3A4 mRNA level ([2]; HepG2-hCAR1, 1 μM, 24 h): substantially and significantly attenuated | CITCO-induced CAR transactivation of the CYP2B6 gene ([3]; 1 μM CITCO plus CINPA1 (5, 1 or 0.3 μM for Donor 1, 2, 3)): effectively inhibited | rifampicin-induced PXR-mediated gene expression ([3]; 5 μM CINPA1 with 10 μM rifampicin): could not reduce | CAR-mediated CYP3A4-luciferase activity [4]: also seen in CAR-mediated CYP3A4-luciferase activity
